Results: patent publication US10548982B2, “Reversible covalent linkage of functional molecules” (priority 2009, dated 2020)

Test system: GIRK currents
Assay: patch-clamp controls: inhibition of the activated GIRK currents
Format: cell-based, human
Procedure: HEK 293 cells expressing HKIR3.1/3.2 channel and human somatostatin receptor 2 were treated with these compounds, and whole cell patch-clamp current recordings taken. […] Cell Culture
Whole cell patch-clamp current recordings were performed with an Axopatch 200B amplifier (Axon Instruments) using fire-polished pipettes with a resistance of 3-4 MS pulled from filamented borosilicated glass capillaries (Harvard Apparatus, 1.5 mm OD×1.17 mm ID). Data was acquired and analysed via a Digidata 1322A interface (Axon Instruments) and pCLAMP software (version 8.1, Axon Instruments). A fast perfusion system was used to apply somatostatin and analogues (Rapid Solution Changer, RSC-160, Bio-Logic France). Cells were clamped at −60 mV. The extracellular solution was (mM): NaCl 80, KCl 60, CaCl2 2, MgCl2 1, HEPES 10, NaH2PO4 0.33, glucose 10, pH 7.4; while the intracellular solution was (mM): K gluconate 110, KCl 20, NaCl 10, MgCl2 1, MgATP 2, EGTA 2 GTP 0.3, pH 7.4. After agonist application, current activated with a delay “lag” followed by a rapid rise to peak amplitude “time to peak”. After removal of the agonist, the current decays back to baseline. For each cell it was assessed if flow artifacts resulting from the pressure of drug application were present. This was done by applying bath solution from one of the sewer pipes at the beginning of the recordings. […]

Row | Substance | GIRK currents after treatment of cells with Pertussis toxin (control) (pertussis toxin 100 ng/ml, cells incubated overnight) | GIRK currents after GIRK inhibitor Tertiapin Q (control) (Tertiapin 100 nM)
1 | Pertussis toxin | currents were largely inhibited | –
2 | Tertiapin Q | – | currents were largely inhibited
